Source: PubChem BioAssay (NCI)
Several values for one entry are separate records, joined by “and”; a condition that tells them apart may be missing. Identical values can stand only once.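 Each compound was tested at five concentrations against cells in 96-well plates for 48 hours. Abbreviation: GI50, concentration required for 50% inhibition of growth. TGI marks complete inhibition of growth.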

Assays:
Test in all cases: DTP human tumour cell line panel, 48 h
BT-549 breast = tested on: BT-549 breast
SN12C renal = tested on: SN12C renal
OVCAR-8 ovarian = tested on: OVCAR-8 ovarian
786-0 renal = tested on: 786-0 renal
CAKI-1 renal = tested on: CAKI-1 renal
K-562 leukemia = tested on: K-562 leukemia
DU-145 prostate = tested on: DU-145 prostate
RXF 393 renal = tested on: RXF 393 renal
HT29 colon = tested on: HT29 colon
HCC-2998 colon = tested on: HCC-2998 colon

Row | Compound | GI50 (BT-549 breast) | TGI (BT-549 breast) | GI50 (SN12C renal) | TGI (SN12C renal) | GI50 (OVCAR-8 ovarian) | TGI (OVCAR-8 ovarian) | GI50 (786-0 renal) | TGI (786-0 renal) | GI50 (CAKI-1 renal) | TGI (CAKI-1 renal) | GI50 (K-562 leukemia) | TGI (K-562 leukemia) | GI50 (DU-145 prostate) | TGI (DU-145 prostate) | GI50 (RXF 393 renal) | TGI (RXF 393 renal) | GI50 (HT29 colon) | TGI (HT29 colon) | GI50 (HCC-2998 colon) [µM] | TGI (HCC-2998 colon)
1 | COC(=O)C1=C(C)NC(C)=C(C(=O)OC)C1/C=C(Cl)/C=C/c1ccccc1 | 21.6 µM | 55.7 µM | 19.2 µM | 41.6 µM | 36 µM | > 100 µM | 25.9 µM | 70.5 µM | 20.7 µM | 49.3 µM | 22.8 µM | 54.7 µM | 18.4 µM | 36.7 µM | 18.4 µM | 46.6 µM | 18.9 µM | 44.9 µM | 14 | 27.2 µM
2 | O=C(/C=C/c1cc([N+](=O)[O-])ccc1Cl)c1ccccc1 | 14.5 µM | 27.8 µM | 19.6 µM | 54 µM | 12.2 µM | 33.5 µM | 15.2 µM | 32 µM | 5.32 µM | 31.3 µM | 6.66 µM | > 100 µM | 14.7 µM | 31.2 µM | 14.7 µM | 28.1 µM | 3.36 µM | 19.4 µM | 3.3 | 9.27 µM
3 | Cc1c(COc2cc(OCc3cccc(C#N)c3)c(CN3C[C@H](O)C[C@@H]3C(=O)O)cc2Cl)cccc1-c1ccc2c(c1)OCCO2 | 7.58 µM | 21.8 µM | 15.7 µM | 29.5 µM | 27.1 µM | > 100 µM | 3.87 µM | 15.3 µM | 14.5 µM | 27.6 µM | 3.43 µM | > 100 µM | 24.4 µM | 62.1 µM | 16 µM | 29.9 µM | 23.2 µM | 48.2 µM | 15.6 | 29.2 µM
4 | N#Cc1c(N)nc(N2CCOCC2)c(C#N)c1-c1cccnc1 | > 100 µM | > 100 µM | 97.2 µM | > 100 µM | > 100 µM | > 100 µM | > 100 µM | > 100 µM | 32.6 µM | 95 µM | 71.7 µM | > 100 µM | > 100 µM | > 100 µM | > 100 µM | > 100 µM | > 100 µM | > 100 µM | 8.8 | 49.4 µM
5 | NC(=O)c1ccc2nc(-c3ccc(Oc4ccc(Cl)cc4)cc3)[nH]c2c1 | 18 µM and 12.9 µM | 67.1 µM and 28.2 µM | 39.4 µM and 14.6 µM | 75 µM and 30.2 µM | 58 µM and 12.9 µM | 75 µM and 34.4 µM | 48 µM and 16.1 µM | 75 µM and 39.4 µM | 6.4 µM and 16.5 µM | 39.6 µM and 49.8 µM | 37.8 µM and 10.3 µM | 75 µM and 88.3 µM | 35 µM and 13 µM | 75 µM and 29.8 µM | 48.9 µM and 14.9 µM | 75 µM and 30.2 µM | 21.6 µM and 12.3 µM | 75 µM and 28.1 µM | – | 75 µM and 33.5 µM
6 | COc1cc(/C=C/C(=O)c2ccc(NC(=O)CN3CCN(c4cc5c(cc4F)c(=O)c(C(=O)O)cn5C4CC4)CC3)cc2)cc(OC)c1OC | 0.405 µM | 1.44 µM | 0.632 µM | 9.01 µM | 0.401 µM | 26.9 µM | 0.947 µM | 3.19 µM | 1.47 µM | > 32.5 µM | 0.36 µM | > 100 µM | 1.07 µM | > 27.1 µM | 0.273 µM | 0.803 µM | 0.285 µM | 1.02 µM | 3.16 | 14.1 µM
7 | CC(C)CCN=C(N)c1ccc(N2CCN(c3ccc(C(N)=NCCC(C)C)cc3)CC2)cc1 | 0.474 µM | 3.1 µM | 7.52 µM | 42.7 µM | 6.57 µM | > 100 µM | 6.58 µM | 38 µM | 31.4 µM | > 100 µM | 2.09 µM | > 100 µM | 6.95 µM | 71.2 µM | 7.89 µM | 44.9 µM | 6.51 µM | 30.2 µM | 11.1 | 37.4 µM
8 | COc1ccc2c(c1)C(=O)c1c-2c(Nc2ccc(Cl)cc2)nc2ccccc12 | 8.46 µM | 27.7 µM | 17.7 µM | 57.1 µM | 11.4 µM | 29.6 µM | 4.15 µM | 16 µM | 20.4 µM | > 100 µM | 71.6 µM | > 100 µM | 8.49 µM | 98.5 µM | 2.06 µM | 6.35 µM | 27.5 µM | > 100 µM | 22.1 | > 100 µM
